{"source": "patent US8192962B2", "about": "“Processes for detecting toxic substances” (Daikin Industries, Ltd., priority 2001, dated 2012)", "test_system": "Energy system protein genes", "assay": "DNA chip mRNA expression in yeast, energy system protein genes (Table 4)", "type": "cell-based, Saccharomyces cerevisiae S288C", "method": "Yeast (Saccharomyces cerevisiae S288C (α SUC2mal mel gap2 CUP1)) were incubated at 25° C. on YPD medium (yeast extract 1%, polypepton 2%, glucose 2%). One of toxic chemical substances was added to the cells at logarithmic growth phase, and the cells were further incubated for two hours. Cells were cultured without any chemical substance in the same condition, and were used as control. Concentrations of the chemical substances were defined to inhibit the growth of the yeast but not lead to death.\nAfter completion of the incubation, the culture was centrifuged to collect the cells. To the cells, sodium acetate buffer (50 mM sodium acetate, 10 mM EDTA, 1% SDS) was added, and the mixture was shaken at 65° C. for five minutes, followed by returning to room temperature, and obtaining the supernatant, of which the procedures were repeated two times. To the supernatant, ½ amount of a solution of phenol/chloroform was added, and the mixture was centrifuged to give a supernatant, which was added with an equal amount of chloroform, and the mixture was centrifuged to give a supernatant. To the supernatant, an equal amount of isopropanol containing 0.3 M sodium acetate was added, and the mixture was allowed to stand at room temperature for 30 minutes, after which the mixture was centrifuged to give a sediment of the whole RNAs. Seventy % ethanol was added to the sediment, and the mixture was again centrifuged to give a sediment, which was then dried and dissolved in water. mRNA was isolated from the whole RNAs as followings. In view of the fact that a poly A chain is attached to the 3′ terminus of mRNA, a polynucleotide having a poly T structure which was immobilized on the surface of latex beads was used to trap the mRNA, and then the mRNA was washed and eluted with spine column (Oligotex-dT30<Super>mRNA Purification Kit, Takara). Reverse transcription of the mRNA was conducted with a reverse transcriptase (Super Script II Reverse Transcriptase; catalogue No. 18064-014, GibcoBRL) using fluorescence-labeled nucleotides to give cDNAs that were introduced with Cy3-dUTP or Cy5-dUTP during the reverse transcription.\nThe labeled cDNAs were dissolved in TE buffer (10mM Tris-HCl/1 mM EDTA, pH8.0), and the solution was dropped on the DNA chip containing the whole genes of yeast (DNA Chip Research Inc. Japan) so that the cDNAs were hybridized on the DNA chip at 65° C. for over 12 hours. The fluoresces intensity of the DNA chip was read with a scanner, and the ratio relative to the fluorescence intensity resulting from the absence of chemical substance was estimated as the following, which is shown in Tables 1 to 9: […]", "data": [{"molecule": "[Cl][Pb][Cl]", "note": "[(4), PbCl2]", "values": [{"measurement": "The level of expressed mRNA in the presence of chemical substance/The level of expressed mRNA in the absence of chemical substance", "setting": "yeast gene YAL060W", "result": 2.7}, {"measurement": "The level of expressed mRNA in the presence of chemical substance/The level of expressed mRNA in the absence of chemical substance", "setting": "yeast gene YBL058W, cells incubated two hours with the chemical substance", "result": 1.1}, {"measurement": "The level of expressed mRNA in the presence of chemical substance/The level of expressed mRNA in the absence of chemical substance", "setting": "yeast gene YBL099W, cells incubated two hours with the chemical substance", "result": 1.4}, {"measurement": "The level of expressed mRNA in the presence of chemical substance/The level of expressed mRNA in the absence of chemical substance", "setting": "yeast gene YBR001C, cells incubated two hours with the chemical substance", "result": 1.4}, {"measurement": "The level of expressed mRNA in the presence of chemical substance/The level of expressed mRNA in the absence of chemical substance", "setting": "yeast gene YBR185C, cells incubated two hours with the chemical substance", "result": 2.0}, {"measurement": "The level of expressed mRNA in the presence of chemical substance/The level of expressed mRNA in the absence of chemical substance", "setting": "yeast gene YBR221C, cells incubated two hours with the chemical substance", "result": 1.5}, {"measurement": "The level of expressed mRNA in the presence of chemical substance/The level of expressed mRNA in the absence of chemical substance", "setting": "yeast gene YCL040W", "result": 2.0}, {"measurement": "The level of expressed mRNA in the presence of chemical substance/The level of expressed mRNA in the absence of chemical substance", "setting": "yeast gene YCR012W", "result": 1.2}, {"measurement": "The level of expressed mRNA in the presence of chemical substance/The level of expressed mRNA in the absence of chemical substance", "setting": "yeast gene YCR046C, cells incubated two hours with the chemical substance", "result": 1.6}, {"measurement": "The level of expressed mRNA in the presence of chemical substance/The level of expressed mRNA in the absence of chemical substance", "setting": "yeast gene YCR105W, cells incubated two hours with the chemical substance", "result": 3.0}, {"measurement": "The level of expressed mRNA in the presence of chemical substance/The level of expressed mRNA in the absence of chemical substance", "setting": "yeast gene YDL021W", "result": 3.7}, {"measurement": "The level of expressed mRNA in the presence of chemical substance/The level of expressed mRNA in the absence of chemical substance", "setting": "yeast gene YDL067C, cells incubated two hours with the chemical substance", "result": 1.3}, {"measurement": "The level of expressed mRNA in the presence of chemical substance/The level of expressed mRNA in the absence of chemical substance", "setting": "yeast gene YDL078C, cells incubated two hours with the chemical substance", "result": 0.8}, {"measurement": "The level of expressed mRNA in the presence of chemical substance/The level of expressed mRNA in the absence of chemical substance", "setting": "yeast gene YDL107W, cells incubated two hours with the chemical substance", "result": 2.2}, {"measurement": "The level of expressed mRNA in the presence of chemical substance/The level of expressed mRNA in the absence of chemical substance", "setting": "yeast gene YDL174C", "result": 1.3}, {"measurement": "The level of expressed mRNA in the presence of chemical substance/The level of expressed mRNA in the absence of chemical substance", "setting": "yeast gene YDL181W, cells incubated two hours with the chemical substance", "result": 1.8}, {"measurement": "The level of expressed mRNA in the presence of chemical substance/The level of expressed mRNA in the absence of chemical substance", "setting": "yeast gene YDR001C", "result": 1.0}, {"measurement": "The level of expressed mRNA in the presence of chemical substance/The level of expressed mRNA in the absence of chemical substance", "setting": "yeast gene YDR050C, cells incubated two hours with the chemical substance", "result": 1.8}, {"measurement": "The level of expressed mRNA in the presence of chemical substance/The level of expressed mRNA in the absence of chemical substance", "setting": "yeast gene YDR079W, cells incubated two hours with the chemical substance", "result": 1.1}, {"measurement": "The level of expressed mRNA in the presence of chemical substance/The level of expressed mRNA in the absence of chemical substance", "setting": "yeast gene YDR178W, cells incubated two hours with the chemical substance", "result": 2.2}, {"measurement": "The level of expressed mRNA in the presence of chemical substance/The level of expressed mRNA in the absence of chemical substance", "setting": "yeast gene YDR231C", "result": 1.5}, {"measurement": "The level of expressed mRNA in the presence of chemical substance/The level of expressed mRNA in the absence of chemical substance", "setting": "yeast gene YDR298C, cells incubated two hours with the chemical substance", "result": 1.3}, {"measurement": "The level of expressed mRNA in the presence of chemical substance/The level of expressed mRNA in the absence of chemical substance", "setting": "yeast gene YDR377W, cells incubated two hours with the chemical substance", "result": 1.4}, {"measurement": "The level of expressed mRNA in the presence of chemical substance/The level of expressed mRNA in the absence of chemical substance", "setting": "yeast gene YDR529C, cells incubated two hours with the chemical substance", "result": 3.2}, {"measurement": "The level of expressed mRNA in the presence of chemical substance/The level of expressed mRNA in the absence of chemical substance", "setting": "yeast gene YEL024W, cells incubated two hours with the chemical substance", "result": 1.1}, {"measurement": "The level of expressed mRNA in the presence of chemical substance/The level of expressed mRNA in the absence of chemical substance", "setting": "yeast gene YEL039C, cells incubated two hours with the chemical substance", "result": 5.1}, {"measurement": "The level of expressed mRNA in the presence of chemical substance/The level of expressed mRNA in the absence of chemical substance", "setting": "yeast gene YER178W", "result": 1.0}, {"measurement": "The level of expressed mRNA in the presence of chemical substance/The level of expressed mRNA in the absence of chemical substance", "setting": "yeast gene YFL057C", "result": 1.8}, {"measurement": "The level of expressed mRNA in the presence of chemical substance/The level of expressed mRNA in the absence of chemical substance", "setting": "yeast gene YFR053C", "result": 2.2}, {"measurement": "The level of expressed mRNA in the presence of chemical substance/The level of expressed mRNA in the absence of chemical substance", "setting": "yeast gene YGL018C, cells incubated two hours with the chemical substance", "result": 3.0}, {"measurement": "The level of expressed mRNA in the presence of chemical substance/The level of expressed mRNA in the absence of chemical substance", "setting": "yeast gene YGL062W", "result": 0.6}, {"measurement": "The level of expressed mRNA in the presence of chemical substance/The level of expressed mRNA in the absence of chemical substance", "setting": "yeast gene YGL187C, cells incubated two hours with the chemical substance", "result": 1.8}, {"measurement": "The level of expressed mRNA in the presence of chemical substance/The level of expressed mRNA in the absence of chemical substance", "setting": "yeast gene YGL191W, cells incubated two hours with the chemical substance", "result": 1.8}, {"measurement": "The level of expressed mRNA in the presence of chemical substance/The level of expressed mRNA in the absence of chemical substance", "setting": "yeast gene YGL205W, cells incubated two hours with the chemical substance", "result": 0.8}, {"measurement": "The level of expressed mRNA in the presence of chemical substance/The level of expressed mRNA in the absence of chemical substance", "setting": "yeast gene YGL256W, cells incubated two hours with the chemical substance", "result": 1.3}, {"measurement": "The level of expressed mRNA in the presence of chemical substance/The level of expressed mRNA in the absence of chemical substance", "setting": "yeast gene YGR043C", "result": 7.9}, {"measurement": "The level of expressed mRNA in the presence of chemical substance/The level of expressed mRNA in the absence of chemical substance", "setting": "yeast gene YGR062C, cells incubated two hours with the chemical substance, 25° C., YPD medium", "result": 1.4}, {"measurement": "The level of expressed mRNA in the presence of chemical substance/The level of expressed mRNA in the absence of chemical substance", "setting": "yeast gene YGR087C, cells incubated two hours with the chemical substance", "result": 0.6}, {"measurement": "The level of expressed mRNA in the presence of chemical substance/The level of expressed mRNA in the absence of chemical substance", "setting": "yeast gene YGR174C, cells incubated two hours with the chemical substance", "result": 2.4}, {"measurement": "The level of expressed mRNA in the presence of chemical substance/The level of expressed mRNA in the absence of chemical substance", "setting": "yeast gene YGR192C", "result": 1.0}, {"measurement": "The level of expressed mRNA in the presence of chemical substance/The level of expressed mRNA in the absence of chemical substance", "setting": "yeast gene YGR244C", "result": 1.6}, {"measurement": "The level of expressed mRNA in the presence of chemical substance/The level of expressed mRNA in the absence of chemical substance", "setting": "yeast gene YGR254W", "result": 1.3}, {"measurement": "The level of expressed mRNA in the presence of chemical substance/The level of expressed mRNA in the absence of chemical substance", "setting": "yeast gene YHR179W", "result": 0.7}, {"measurement": "The level of expressed mRNA in the presence of chemical substance/The level of expressed mRNA in the absence of chemical substance", "setting": "yeast gene YIL160C", "result": 3.5}, {"measurement": "The level of expressed mRNA in the presence of chemical substance/The level of expressed mRNA in the absence of chemical substance", "setting": "yeast gene YIR031C, cells incubated two hours with the chemical substance", "result": 0.6}, {"measurement": "The level of expressed mRNA in the presence of chemical substance/The level of expressed mRNA in the absence of chemical substance", "setting": "yeast gene YJL052W", "result": 1.8}, {"measurement": "The level of expressed mRNA in the presence of chemical substance/The level of expressed mRNA in the absence of chemical substance", "setting": "yeast gene YJL121C, cells incubated two hours with the chemical substance", "result": 0.8}, {"measurement": "The level of expressed mRNA in the presence of chemical substance/The level of expressed mRNA in the absence of chemical substance", "setting": "yeast gene YJL166W, cells incubated two hours with the chemical substance", "result": 1.3}, {"measurement": "The level of expressed mRNA in the presence of chemical substance/The level of expressed mRNA in the absence of chemical substance", "setting": "yeast gene YJL216C, cells incubated two hours with the chemical substance", "result": 0.9}, {"measurement": "The level of expressed mRNA in the presence of chemical substance/The level of expressed mRNA in the absence of chemical substance", "setting": "yeast gene YJR009C", "result": 1.0}]}]}
